According to EP0070186B1, “Biologically active peptides” (CELLTECH LIMITED, priority 1981, dated 1985):

Key:
[1] = literature (Gudmundson et al. 1966); cited from earlier work
female Wistar rats = assay: randomized bioassay, effect on plasma calcium after tail vein injection (Example 2); format: in vivo
Method: After preliminary experiments had shown that the time courses of the effects of PDN 21 and human calcitonin (hCT) on plasma calcium were similar, peptide in acetate buffer was injected into the tail vein of female Wistar rats (mean wt 45 g, range 43―48, Oxfordshire Laboratory Animal Colonies (1976) Ltd.) and blood was taken from the aorta after 30 min in a randomized bioassay (Macintyre, I. Galante, L. S. & Hillyard, C. J. in Handbuch der inneren MedizinVllIA(eds) Kuhlen- cordt, F. & Bartelheimer, H. 623-634 (Springer-Verlag, Heidelberg, 1980)). Plasma calcium was measured colormetrically by the method of (Gindler, E. M. & King, J. D. Amer. J.Clin. Path. 58, 376―382 (1972)), and the values confirmed by atomic absorption spectrophotometry. The results are shown graphically in Figure 3. Each point is the mean from three rats 0 PDN-21; A hCT (WHO 1st International Reference Preparation of Calcitonin Hormone for Bioassay, 70/234 supplied by the National Institute for Biological Standards and Control); DhCT+PDN-21 (800 ng PDN 21 was injected with each dose of calcitonin). […] Smoothed curves were fitted to the data by eye. […] Potencies were calculated in terms of hCT over the dose ranges where the log dose response is linear, yielding values of 0.017 milliunits hCT equivalent/ng PDN-21 and 5.11 milliunits hCT equivalent/milliunit hCT in the hCT+PDN-21 group. […]

Question: Which “effect on plasma phosphate” value [1] does the source give for calcitonin here?
Answer: lowers

Question: For human calcitonin [hCT], which “enhancement of the potency of hCT” value (female Wistar rats; in the presence of a maximal dose of PDN-21, plasma calcium in the rat) is on record?
Answer: five-fold

Question: What about the “dose giving 50% response (ED50), plasma calcium” value (female Wistar rats; tail vein injection, blood after 30 min, probit transformation) of the same substance?
Answer: 0.71 MRC milliunits
